Measurements from the supplement of paper PMC11451515.

Assays:
Assay in all cases: AUC of viability dose-response curve (% viability x log10 dose units); higher = less sensitive
Conditions in all cases: 48 h
SEM cells = test system: SEM cells
Summary of the method: (§1)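 Seeding of medium-adapted leukemia cells was at 500 or 1000 cells/well in 1536-well plates, followed by 48 h at 37°C with library compounds in DMSO at 11 threefold doses from 47 μM to 0.79 nM. CellTiter-Glo One luminescence was normalised per plate to DMSO and cell-free wells and fitted as a four-parameter log-logistic function of log10 dose. Area under the curve was integrated by trapezoidal rule, with curves exceeding full viability scaled and curves failing quality control removed.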

P12-Ichikawa = test system: P12-Ichikawa
Summary of the method: as §1

NOMO1 = test system: NOMO1
Summary of the method: as §1

[1] = RPMI 5 mM glucose + 10% dialyzed FBS

| SMILES | AUC of viability dose-response curve (SEM cells; HPLM + 10% dialyzed FBS) | AUC of viability dose-response curve (SEM cells; RPMI 5 mM glucose + 10% FBS) | AUC of viability dose-response curve (SEM cells; [1]) | AUC of viability dose-response curve (P12-Ichikawa; HPLM + 10% dialyzed FBS) | AUC of viability dose-response curve (P12-Ichikawa; RPMI 5 mM glucose + 10% FBS) | AUC of viability dose-response curve (P12-Ichikawa; [1]) | AUC of viability dose-response curve (NOMO1; HPLM + 10% dialyzed FBS) | AUC of viability dose-response curve (NOMO1; RPMI 5 mM glucose + 10% FBS) | AUC of viability dose-response curve (NOMO1; [1]) |
| --- | --- | --- | --- | --- | --- | --- | --- | --- | --- |
| Oc1nc(-c2ccc(C(F)(F)F)cc2)nc2c1CSCC2 | 438 | 457 | 449 | 464 | 464 | 436 | 477 | 441 | 466 |
| COC(=O)C\1=C(C)\N\C(=C(/C1C2=CC=CC3=NON=C23)C(=O)OC(C)C)C (centres undefined) | 468 | 449 | 457 | 455 | 454 | 438 | 437 | 441 | 464 |
| COc1cc[nH]c2ncc(C(=O)C(=O)N3CCN(C(=O)c4ccccc4)C[C@H]3C)c1-2 | 419 | 453 | 428 | 455 | 463 | 470 | 389 | 461 | 452 |
| CCc1ccc(/C=C2/SC(=S)NC2=O)cc1 | – | – | – | 400 | 386 | 377 | 377 | 387 | 375 |
| CCCCOCCOc1nc(-c2ccc(C(=O)O)c(F)c2)sc1C | 456 | 460 | 475 | 464 | 434 | 439 | 420 | 437 | 436 |
| COc1cccc2c1C(=O)c1c(O)c3c(c(O)c1C2=O)C[C@@](O)(C(=O)CO)C[C@@H]3O[C@H]1C[C@H](N)[C@H](O)[C@H](C)O1 | 286 | 268 | 271 | 338 | 326 | 346 | 367 | 369 | 374 |
| COc1ccc2c(c1)CN(C)CC2c1ccc(Cl)c(Cl)c1 (centres undefined) | 465 | 467 | 443 | 475 | 471 | 461 | 430 | 463 | 437 |
| Cc1cc2c(C(N)=O)cccc2n1-c1nc2c(c(NCc3ccccc3)n1)COCC2 | 295 | 310 | 312 | 330 | 322 | 334 | 312 | 315 | 293 |
| COC1=CC=C(C(=C1)OC(C)C)C/2=N/[C@@H]([C@@H](N2C(=O)N3CCNC(=O)C3)C4=CC=C(Cl)C=C4)C5=CC=C(Cl)C=C5 | 279 | 250 | 253 | 404 | 427 | 413 | 409 | 439 | 434 |
| COC(=O)c1ccc2c(c1)NC(=O)/C2=C(\Nc1ccc(N(C)C(=O)CN2CCN(C)CC2)cc1)c1ccccc1 | – | – | – | 458 | 462 | 451 | 453 | 459 | 441 |
| COc1ccc(C(=O)c2c(C)n(CCN3CCOCC3)c3cc(I)ccc23)cc1 | 461 | 461 | 458 | 381 | 381 | 409 | 354 | 344 | 357 |
| CCCCCNC(=O)N1CCC(CN(Cc2ccc(Cl)cc2)Cc2ccc([N+](=O)[O-])s2)C1 (centres undefined) | 461 | 447 | 456 | 443 | 446 | 445 | – | – | – |
| Nc1ncnc2c1ncn2[C@@H]1O[C@H](CO)C[C@H]1O | 426 | 445 | 416 | 442 | 439 | 430 | 439 | 420 | 445 |
| CCCCOc1c(C(=O)c2c(F)cc(C)cc2F)cnc2[nH]ncc12 | 410 | 410 | 413 | 470 | 458 | 435 | 460 | 444 | 424 |
| Cc1csc(-c2nnc(Nc3ccc(Oc4ncccc4-c4ccnc(N)n4)cc3)c3ccccc23)c1 | 258 | 211 | 226 | 178 | 191 | 226 | 408 | 334 | 357 |
| CC(C)c1cc(C(C)C)c(CC(=O)N[S+](=O)([O-])Oc2c(C(C)C)cccc2C(C)C)c(C(C)C)c1 | 471 | 467 | 464 | 469 | 469 | 451 | 445 | 439 | 426 |
| Cc1coc2c1C(=O)C(=O)c1c-2ccc2c1CCCC2(C)C | 439 | 432 | 421 | 450 | 444 | 438 | 437 | 455 | 450 |
| O=C(CCCN1CCN(c2ccc(F)cc2)CC1)NC1c2ccccc2CSc2ccccc21 (centres undefined) | 429 | 388 | 402 | 455 | 434 | 434 | 427 | 440 | 438 |
| C=C[C@H]1CN2CCC1C[C@@H]2C(O)c1ccnc2ccc(OC)cc12 (some centres undefined) | – | – | – | 473 | 470 | 467 | 462 | 467 | 463 |
| Nc1c2c(nc3ccccc13)CCCC2 | 431 | 390 | 402 | 434 | 440 | 433 | 352 | 376 | 388 |
| O=C(O)CCNC(=O)c1ccc(/N=N/c2ccc(O)c(C(=O)O)c2)cc1 | 443 | 454 | 464 | 469 | 447 | 443 | 465 | 469 | 468 |
| O=C(O)c1cccnc1Nc1cccc(C(F)(F)F)c1 | 466 | 420 | 436 | 451 | 451 | 444 | 446 | 452 | 461 |
| CN1\C=N/C2=CC=C(NC3=CC(=CC=C3C)NC(=O)C4=CC(=CC=C4)C(C)(C)C#N)C=C2C1=O | 424 | 431 | 433 | 421 | 395 | 422 | 376 | 377 | 355 |
| N[C@@H]1CONC1=O | 418 | 443 | 431 | 468 | 474 | 465 | 474 | 441 | 464 |
